Reference: PubChem BioAssay AID330 (DTP/NCI, 2004)
Several values for one entry are separate records, joined by “and”; a condition that tells them apart may be missing. Equal entries are not always repeated. Toxic doses and inconclusive results are not listed.

Test system: P388 leukemia ip, CD2F1 mice, survival T/C
Assay: NCI In Vivo Anticancer Drug Screen. Data for tumor model P388 Leukemia (intraperitoneal) in CD2F1 (CDF1) mice
Settings: endpoint: median survival time, higher = longer survival
Summary of the method: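 Mice carrying the transplanted tumor received test compound or vehicle. Survival was recorded in each group, and the value is the treated-group measurement divided by that of the vehicle-treated control group.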

[1] = dose: 100.0 mg/kg/injection, schedule: Q01DX001 (ip), vehicle: saline with Tween-80
[2] = dose: 200.0 mg/kg/injection, schedule: Q01DX001 (ip), vehicle: saline with Tween-80
[3] = dose: 400.0 mg/kg/injection, schedule: Q01DX001 (ip), vehicle: saline with Tween-80
[4] = dose: 50.0 mg/kg/injection, schedule: Q01DX005 (ip), vehicle: Klucel (hydroxypropylcellulose) (HPC)
[5] = dose: 100.0 mg/kg/injection, schedule: Q01DX005 (ip), vehicle: Klucel (hydroxypropylcellulose) (HPC)
[6] = dose: 200.0 mg/kg/injection, schedule: Q01DX005 (ip), vehicle: Klucel (hydroxypropylcellulose) (HPC)
[7] = dose: 50.0 mg/kg/injection, schedule: Q04DX003 (ip), vehicle: saline with Tween-80
[8] = dose: 100.0 mg/kg/injection, schedule: Q04DX003 (ip), vehicle: saline with Tween-80
[9] = dose: 50.0 mg/kg/injection, schedule: Q01DX005 (ip), vehicle: saline with Tween-80
[10] = dose: 100.0 mg/kg/injection, schedule: Q01DX005 (ip), vehicle: saline with Tween-80
[11] = dose: 200.0 mg/kg/injection, schedule: Q01DX005 (ip), vehicle: saline with Tween-80
[12] = dose: 100.0 mg/kg/injection, schedule: Q01DX009 (ip), vehicle: saline with Tween-80
[13] = dose: 400.0 mg/kg/injection, schedule: Q01DX009 (ip), vehicle: saline with Tween-80
[14] = dose: 50.0 mg/kg/injection, schedule: Q01DX005 (ip), vehicle: saline

For `O=C(O)CCC(=O)OCN1C(=O)C2C3C=CC(C2C1=O)C1C2C(=O)N(COC(=O)CCC(=O)O)C(=O)C2C31` (stereo unspecified), the T/C (dose: 25.0 mg/kg/injection, schedule: Q01DX009 (ip), vehicle: water) was 103 % of control and 107 % of control (2×), the T/C (dose: 50.0 mg/kg/injection, schedule: Q01DX009 (ip), vehicle: water) was 115 % of control and 116 % of control and 122 % of control and the T/C (dose: 100.0 mg/kg/injection, schedule: Q01DX009 (ip), vehicle: water) was 165 % of control and 178 % of control.
With `NC(=S)c1ccccc1[N+](=O)[O-]` the T/C (dose: 25.0 mg/kg/injection, schedule: Q01DX001 (ip), vehicle: saline) was 104 % of control, the T/C (dose: 25.0 mg/kg/injection, schedule: Q01DX001 (ip), vehicle: suspension in saline) was 101 % of control and the T/C (dose: 50.0 mg/kg/injection, schedule: Q01DX001 (ip), vehicle: saline) was 104 % of control. The T/C (dose: 50.0 mg/kg/injection, schedule: Q01DX001 (ip), vehicle: suspension in saline) was 100 % of control, the T/C (dose: 100.0 mg/kg/injection, schedule: Q01DX001 (ip), vehicle: saline) was 101 % of control and 104 % of control and the T/C (dose: 100.0 mg/kg/injection, schedule: Q01DX001 (ip), vehicle: suspension in saline) was 102 % of control. The T/C (dose: 200.0 mg/kg/injection, schedule: Q01DX001 (ip), vehicle: suspension in saline) was 101 % of control.
`O=C(Nc1ccc(NC2=NCCN2)cc1)c1ccc(C(=O)Nc2ccc(NC3=NCCN3)cc2)c([N+](=O)[O-])c1` was tested, and the T/C (dose: 1.56 mg/kg/injection, schedule: Q01DX005 (ip), vehicle: Klucel (hydroxypropylcellulose) (HPC)) was 116 % of control, the T/C (dose: 6.25 mg/kg/injection, schedule: Q01DX005 (ip), vehicle: Klucel (hydroxypropylcellulose) (HPC)) was 158 % of control and the T/C (dose: 12.5 mg/kg/injection, schedule: Q01DX005 (ip), vehicle: Klucel (hydroxypropylcellulose) (HPC)) was 158 % of control.
`CO/N=C1/C=CC(Cl)=C/C1=C(\c1ccccc1Cl)C(C#N)c1ccccc1Cl` (stereo unspecified) was tested, and the T/C [1] was 94 % of control, the T/C [2] was 102 % of control and the T/C [3] was 92 % of control.
For `COC(=O)c1cc(=O)nc(N/N=C/c2ccccc2O)s1`, the T/C [4] was 98 % of control, the T/C [5] was 100 % of control and the T/C [6] was 108 % of control.
In the case of `CCCC[CH2][Pb]([CH2]CCCC)([CH2]CCCC)[O]C(C)=O`, the T/C (dose: 0.25 mg/kg/injection, schedule: Q01DX009 (ip), vehicle: saline sonified) is reported as 104 % of control, the T/C (dose: 0.5 mg/kg/injection, schedule: Q01DX009 (ip), vehicle: saline sonified) is reported as 109 % of control and the T/C (dose: 1.0 mg/kg/injection, schedule: Q01DX009 (ip), vehicle: saline sonified) is reported as 104 % of control.
`COC(=O)NC(=S)Nc1nncs1` was tested, and the T/C (dose: 25.0 mg/kg/injection, schedule: Q04DX003 (ip), vehicle: saline with Tween-80) was 101 % of control, the T/C [7] was 105 % of control and the T/C [8] was 105 % of control.
In the case of `CC(C)CCN=C(N)N=C(N)N`, the T/C (dose: 60.0 mg/kg/injection, schedule: Q01DX005 (ip), vehicle: saline) is reported as 100 % of control and the T/C (dose: 120.0 mg/kg/injection, schedule: Q01DX005 (ip), vehicle: saline) is reported as 109 % of control.
With `CCOC(=O)Nc1c(C)noc1NC(C)=O` the T/C [1] was 100 % of control, the T/C [2] was 100 % of control and the T/C [3] was 95 % of control.
In the case of `C/C=C(\C)c1cc(=O)c2c(C)cc3c(c2o1)C(=O)c1c(OC)cccc1C3=O`, the T/C [1] is reported as 96 % of control, the T/C [2] is reported as 93 % of control and the T/C [3] is reported as 89 % of control.
`COCCOC(=O)NCP(Cl)(CNC(=O)OCCOC)(CNC(=O)OCCOC)CNC(=O)OCCOC` was tested, and the T/C (dose: 50.0 mg/kg/injection, schedule: Q01DX009 (ip), vehicle: saline) was 100 % of control, the T/C (dose: 100.0 mg/kg/injection, schedule: Q01DX009 (ip), vehicle: saline) was 99 % of control and the T/C (dose: 200.0 mg/kg/injection, schedule: Q01DX009 (ip), vehicle: saline) was 105 % of control.
`CC1(CCBr)C(=O)NC(=O)NC1=O` was tested, and the T/C [9] was 101 % of control, the T/C [10] was 101 % of control and the T/C [11] was 105 % of control.
For `CCOc1ccc(CC)cc1Cc1ccc(OC)cc1`, the T/C [9] was 108 % of control, the T/C [10] was 117 % of control and the T/C [11] was 113 % of control.
In the case of `CC(CNC(=O)CCOS(C)(=O)=O)NC(=O)CCOS(C)(=O)=O` (stereo unspecified), the T/C (dose: 12.5 mg/kg/injection, schedule: Q04DX003 (ip), vehicle: saline with Tween-80) is reported as 100 % of control, the T/C [7] is reported as 154 % of control and the T/C [12] is reported as 154 % of control. The T/C [8] was 150 % of control, the T/C (dose: 200.0 mg/kg/injection, schedule: Q01DX009 (ip), vehicle: saline with Tween-80) was 177 % of control and the T/C (dose: 200.0 mg/kg/injection, schedule: Q04DX003 (ip), vehicle: saline with Tween-80) was 175 % of control. For the same compound, the T/C [13] was 90 % of control and the T/C (dose: 400.0 mg/kg/injection, schedule: Q04DX003 (ip), vehicle: saline with Tween-80) was 241 % of control.
With `Cc1ccnc(C2=C(O)c3ccccc3C2=O)c1` the T/C [4] was 102 % of control, the T/C [5] was 90 % of control and the T/C [6] was 91 % of control.
In the case of `COC12C=CC(CC1)C1C(=O)C=CC(=O)C12` (stereo unspecified), the T/C (dose: 60.0 mg/kg/injection, schedule: Q01DX005 (ip), vehicle: saline with Tween-80) is reported as 105 % of control, the T/C (dose: 120.0 mg/kg/injection, schedule: Q01DX005 (ip), vehicle: saline with Tween-80) is reported as 105 % of control and the T/C (dose: 240.0 mg/kg/injection, schedule: Q01DX005 (ip), vehicle: saline with Tween-80) is reported as 112 % of control.
With `COC1=CC2(CCN(C)C(=O)C(F)(F)F)C(=CC1=O)CCc1ccc(OC)c(O)c12` (stereo unspecified) the T/C (dose: 100.0 mg/kg/injection, schedule: Q04DX002 (ip), vehicle: saline with Tween-80) was 101 % of control, the T/C (dose: 200.0 mg/kg/injection, schedule: Q04DX002 (ip), vehicle: saline with Tween-80) was 100 % of control and the T/C (dose: 400.0 mg/kg/injection, schedule: Q04DX002 (ip), vehicle: saline with Tween-80) was 93 % of control.
In the case of `CC(=O)CC1CC2(CCC1=O)OCCO2` (stereo unspecified), the T/C (dose: 100.0 mg/kg/injection, schedule: Q01DX009 (ip), vehicle: saline sonified) is reported as 100 % of control, the T/C (dose: 200.0 mg/kg/injection, schedule: Q01DX009 (ip), vehicle: saline sonified) is reported as 100 % of control and the T/C (dose: 400.0 mg/kg/injection, schedule: Q01DX009 (ip), vehicle: saline sonified) is reported as 100 % of control.
For `C=C1C(O)CC2C(O)C3(C)CCC(C)(C)C3C12O` (stereo unspecified), the T/C (dose: 18.75 mg/kg/injection, schedule: Q01DX009 (ip), vehicle: other) was 106 % of control, the T/C (dose: 37.5 mg/kg/injection, schedule: Q01DX009 (ip), vehicle: other) was 98 % of control and the T/C (dose: 75.0 mg/kg/injection, schedule: Q01DX009 (ip), vehicle: other) was 100 % of control. The T/C (dose: 150.0 mg/kg/injection, schedule: Q01DX009 (ip), vehicle: other) was 93 % of control.
With `CC(C)[CH2][Pb]([CH2]C(C)C)([CH2]C(C)C)[n]1ccnc1` the T/C (dose: 3.12 mg/kg/injection, schedule: Q01DX009 (ip), vehicle: saline) was 101 % of control, the T/C (dose: 6.25 mg/kg/injection, schedule: Q01DX009 (ip), vehicle: saline) was 108 % of control and the T/C (dose: 12.5 mg/kg/injection, schedule: Q01DX009 (ip), vehicle: saline) was 111 % of control.
For `C=C(C)C1CC=C(/C=N/O)CC1` (stereo unspecified), the T/C [12] was 100 % of control and the T/C [13] was 91 % of control.
In the case of `CCCC(=O)NC1C(Nc2ccc(S(=O)(=O)Nc3nc(C)cc(C)n3)cc2)OC(CO)C(O)C1O` (stereo unspecified), the T/C [14] is reported as 97 % of control, the T/C (dose: 100.0 mg/kg/injection, schedule: Q01DX005 (ip), vehicle: saline) is reported as 92 % of control and the T/C (dose: 200.0 mg/kg/injection, schedule: Q01DX005 (ip), vehicle: saline) is reported as 99 % of control.
In the case of `CC[N+](C)(CC)C[Si](C)(C)c1ccccc1`, the T/C (dose: 12.5 mg/kg/injection, schedule: Q01DX005 (ip), vehicle: saline) is reported as 98 % of control, the T/C (dose: 25.0 mg/kg/injection, schedule: Q01DX005 (ip), vehicle: saline) is reported as 100 % of control and the T/C [14] is reported as 105 % of control and 98 % of control.
In the case of `O=C(CCCCCCCCc1cccc2c1OCO2)c1c(O)cccc1O`, the T/C (dose: 2.0 mg/kg/injection, schedule: Q01DX009 (ip), vehicle: Klucel (hydroxypropylcellulose) (HPC)) is reported as 103 % of control, the T/C (dose: 4.0 mg/kg/injection, schedule: Q01DX009 (ip), vehicle: Klucel (hydroxypropylcellulose) (HPC)) is reported as 95 % of control and the T/C (dose: 8.0 mg/kg/injection, schedule: Q01DX009 (ip), vehicle: Klucel (hydroxypropylcellulose) (HPC)) is reported as 109 % of control. The T/C (dose: 16.0 mg/kg/injection, schedule: Q01DX009 (ip), vehicle: Klucel (hydroxypropylcellulose) (HPC)) was 105 % of control.
